Data published in patent publication US20100160217A1 (priority 2005, published 2010).

How the values were obtained:
nAChRs = conditions: unc-74 animals; reduction not greater than in unc-38 mutants
Experimental: (§1) Electrophysiology was performed as previously described (Richmond and Jorgensen, 1999a).
(§2) To directly examine levamisole sensitive nAChR function, electrophysiological analysis was performed on wild type and unc-74 mutant animals (FIG. 2). Intact body wall muscles of dissected animals were voltage clamped and the amount of current elicited in response to levamisole was measured.

[1] = system: levamisole sensitive nAChR
Experimental: as §1, §2

C. elegans [2] = system: C. elegans
Experimental: (§3) Pharmacological resistance assays. Plates were equilibrated to room temperature, weighed, and equal volumes of different concentrations of levamisole or aldicarb were added to make plates containing specific concentrations of drug. Once plates dried, they were seeded with a drop of OP50 and incubated overnight at room temperature. A minimum of 15 young adult animals (levamisole) or L4 animals (aldicarb) were placed on drug plates and maintained for two (levamisole) or eight (aldicarb) hours. The percentage of animals on each plate that were paralyzed in response to mild stimulation was determined. Data presented represents the mean +/− SEM of n=number of plates.

UNC-49/GABAA receptors = assay: Electrophysiology: GABA-induced current in wild type and unc-74 animals; format: cell-based, C. elegans; conditions: unc-74 mutant animals
C. elegans [3] = assay: Aldicarb resistance assay (paralysis on drug plates); format: in vivo; conditions: unc-74 animals (data not shown)
Experimental: as §3

CN1CCCC1c1cccnc1 (stereo not drawn) [nicotine]
amplitude of nicotine current relative to wild type (nAChRs): reduced

c1ccc([C@H]2CN3CCSC3=N2)cc1 [levamisole]
inward current elicited by focal pulses of levamisole [1]: around 200 pA | levamisole induced current ([1]; unc-74 mutants, voltage clamped muscle cells): completely abolished | resistance to levamisole (paralysis) (C. elegans [2]; unc-74 mutant animals, all concentrations tested, FIG. 1(B)): completely resistant | response to levamisole (C. elegans [2]; unc-74 mutants, concentrations that completely paralyze wild type): no response | concentration of levamisole at which animals become paralyzed (C. elegans [2]; wild type animals, levamisole resistance curves, FIG. 1(B)): ~0.15 mM | time to hypercontraction and complete paralysis (C. elegans [2]; wild type animals, solid media, millimolar concentrations of levamisole (0.2 mM), FIG. 1(A)): ~2 h

NCCCC(=O)O [GABA]
GABA induced currents compared with wild type (UNC-49/GABAA receptors): equivalent

CNC(=O)O/N=C/C(C)(C)SC [aldicarb]
resistance to aldicarb (C. elegans [3]): only partially resistant
